Publication PMC11123841, “Discovery and Synthesis of Hydroxy-L-Proline Blockers of the Neutral Amino Acid Transporters SLC1A4 (ASCT1) and SLC1A5 (ASCT2)” (Molecules, 2024)
Entries after “also recorded” stand apart in the source; their conditions may differ.

Target: T1, SLC7A10+SLC3A2 (asc-1/4f2) (Homo sapiens, UniProt Q9NS82)
T1 construct: expressed in transfected cells; host or cells: Xenopus laevis oocytes (cRNA co-injection)
T1 sequence (Q9NS82 1-523): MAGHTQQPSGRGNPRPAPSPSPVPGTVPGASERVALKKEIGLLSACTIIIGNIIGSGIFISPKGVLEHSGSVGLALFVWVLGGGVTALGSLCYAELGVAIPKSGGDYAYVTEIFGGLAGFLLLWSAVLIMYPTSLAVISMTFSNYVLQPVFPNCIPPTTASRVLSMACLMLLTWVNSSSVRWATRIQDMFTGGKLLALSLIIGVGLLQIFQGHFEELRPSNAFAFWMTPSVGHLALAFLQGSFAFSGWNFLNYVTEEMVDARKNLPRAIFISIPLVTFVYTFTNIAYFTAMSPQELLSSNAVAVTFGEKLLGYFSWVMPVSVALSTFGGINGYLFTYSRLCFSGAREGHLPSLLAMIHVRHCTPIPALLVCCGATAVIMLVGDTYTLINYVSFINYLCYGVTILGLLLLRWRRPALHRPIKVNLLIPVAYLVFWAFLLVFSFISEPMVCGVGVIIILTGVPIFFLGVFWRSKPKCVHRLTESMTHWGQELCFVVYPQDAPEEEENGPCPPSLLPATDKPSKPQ
T1 sequence (P08195 1-529 partner): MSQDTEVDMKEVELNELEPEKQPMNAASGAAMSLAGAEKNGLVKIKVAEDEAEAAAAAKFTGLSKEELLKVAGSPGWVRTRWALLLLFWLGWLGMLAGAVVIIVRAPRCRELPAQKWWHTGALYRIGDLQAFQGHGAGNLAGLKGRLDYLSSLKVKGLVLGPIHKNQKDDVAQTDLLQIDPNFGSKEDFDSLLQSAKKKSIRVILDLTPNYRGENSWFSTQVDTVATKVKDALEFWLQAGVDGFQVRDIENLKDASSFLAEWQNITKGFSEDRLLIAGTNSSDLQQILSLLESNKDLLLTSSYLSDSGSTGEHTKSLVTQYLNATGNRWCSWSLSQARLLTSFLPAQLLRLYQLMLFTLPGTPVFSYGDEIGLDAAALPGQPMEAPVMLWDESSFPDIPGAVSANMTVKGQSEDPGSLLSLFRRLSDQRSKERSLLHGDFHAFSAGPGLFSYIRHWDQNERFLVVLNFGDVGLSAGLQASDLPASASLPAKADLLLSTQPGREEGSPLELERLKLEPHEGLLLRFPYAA
Experiment: [3H]D-serine uptake in oocytes
Assay type: cell-based
Conditions: 10 µM BPOHP
Protocol: BPOHP activity was evaluated against the glutamate transporters paralogs within the SLC1A gene family (SLC1A 1–3) as well as at neutral amino acid transporters that share common ligand substrates with the SLC1 family including SLC38A1,2, and 4 (ATA1, ATA2, ATA3) and heteromeric transporters SLC7A10+SLC3A2 (asc-1/4f2). […] Finally, radiolabeled [^3H]D-serine uptake was used to assess the electroneutral SLC7A10+SLC3A2 transporter, in which 10 µM BPOHP had no effect (Figure S3).
Uptake was halted by washing 3 times with 4 °C ND96 buffer. Oocytes were then lysed in 0.1% Triton X-100, and radioactivity was counted via liquid scintillation. Dose response curves were generated by fitting fractional inhibition (I) to the expression I = Imax × [inhibitor]/([inhibitor] + IC50).
Figure SM-3A. Representative traces showing 100µM L-Ala currents and co-application of 3µM BPOHP (black bar) with no effect on SLC38A neutral amino acid transporters SLC38A1(ATA1), SLC38A2 (ATA2), and SLC38A4 (ATA3). SM-3B. [3H]D-serine uptake (100nM) in SLC1A4 is blocked by BPOHP (10µM), however, [ 3H]D-serine uptake by co -expressed SLC7A10+SLC3A2 (asc1+4F2) nor SLC3A2 (4f2) expressed (injected) alone was blocked by application of 10µM BPOHP.
Figure SM-4. Tosic acid approach to compound 12c. (i) Tosylic acid 0.1M in THF 60◦C. (ii) Phenol and NaH in DCM, 40◦C under argon balloon (iii) 10% Pd/C (10% w/eq.), H2, MeOH, H2O, […]

Question: With `O=C(O)[C@H]1NC[C@@H](OCc2ccc(-c3ccccc3)cc2)[C@@H]1O` [14e] as the compound, how does the “effect on [3H]D-serine uptake” value read?
Answer: no effect; also recorded: no inhibition was detected
